Measured values taken from patent US20100022509A1, “Inhibitors of MshC and Homologs Thereof, and Methods of Identifying Same” (priority 2006, published 2010).
Values after ≈ are worked out from the molar mass of the structure shown.

What was measured:
Format in all cases: cell-based
[1] = tested on: M. tuberculosis; test: Growth of M. tuberculosis in broth culture, 7 days (optical density, plate counts); details: for OD600: day 7, starting OD600 0.08
[2] = tested on: Enterococcus faecalis ATCC 29212; test: MIC by broth dilution assay
[3] = tested on: mycothiol biosynthesis in M. smegmatis mc^2155; test: Inhibitor studies with Mycobacterium smegmatis: GlcN-Ins and MSH content by HPLC; details: 30 μM, after 12 h
Method: (§1) Inhibitor studies with Mycobaterium smagmatis. An exponential culture of M. smegmatis mc^2155 in Middlebrook 7H9 medium containing 0.05% Tween 80 and 1% glucose was used to inoculate a culture in the same medium but with 0.4% glucose to A600=0.05. The inhibitor NTF1836 was added from a stock solution in Me2SO at 0, 10, 20, 30 and 40 μM to duplicate 40 ml aliquots of the culture in 125 ml flasks to produce a final Me2SO content of ≦0.04%. The cells were incubated at 37° C. and 250 rpm. At A600˜0.25 and subsequent doublings in cell density, a volume of culture was removed sufficient to provide analysis of GlcN-Ins and MSH as described above.

[4] = tested on: Mycobacterium smegmatis mc^2155 ATCC 700084; test: MIC by broth dilution assay
[5] = tested on: MshC within M. tuberculosis; test: Mycothiol and GlcN-Ins content of M. tuberculosis, day 7
[6] = tested on: M. smegmatis mc^2155; test: Inhibitor studies with Mycobacterium smegmatis: growth
Method: as §1

[7] = tested on: Staphylococcus aureus; test: MIC by broth dilution assay; details: for MIC: n = 3
[8] = tested on: M. smegmatis; test: Growth of M. smegmatis parent and MSH mutant strains in the presence of INH
Method: Using the parental strain mc^2155, the Myco504 mutant in mshB that produces 5-10% of normal MSH in exponential growth, and the mutant strain 49 that produces 0% of normal MSH, the effect of 0-30 μg per ml INH upon growth was examined. […] This is seen in FIG. 13 for growth in the presence of 10 μg per ml INH.

Compound: CN(CCCNC(=O)c1ccc2c(c1)N(Cc1cccc(Cl)c1)C(=O)c1ccccc1[S+]2[O-])C1CCCCC1 (centres unmarked) [NTF1836]
- OD600 ([1]; 20 uM): 1.304 ± 0.014
- OD600 ([1]; 30 uM): 0.600 ± 0.049
- OD600 ([1]; 50 uM): 0.271
- OD600 ([1]; 75 uM): 0.12
- IC50 ([1]; Mycobacterium tuberculosis, 168 h, 7 days, by optical density and by plate counts of viable bacteria, read-out: IC50 for growth inhibition of M. tuberculosis): 20 to 30 µM
- growth inhibition, in words [2]: inhibitory
- MIC ([2]; ATCC29212, Todd Hewitt, n = 3): 64 µg/mL (≈ 113 µM)
- GlcN-Ins content [3]: twice the normal level
- growth inhibition, in words ([4]; M. smegmatis): inhibitory
- MIC ([4]; Mycolicibacterium smegmatis, ATCC700084|MC^2155, Middlebrook 7H9 + 1% glucose, n = 3): 16 µg/mL
- GlcN-Ins ([5]; 20 uM): 2.77 ± 0.09 nmoles/10^9 bacteria
- GlcN-Ins/mycothiol ([5]; 20 uM): 0.09
- mycothiol ([5]; 20 uM): 27.8 ± 2.5 nmoles/10^9 bacteria
- GlcN-Ins ([5]; 30 uM): 3.49 ± 0.10 nmoles/10^9 bacteria
- GlcN-Ins/mycothiol ([5]; 30 uM): 0.18
- mycothiol ([5]; 30 uM): 19.1 ± 2.5 nmoles/10^9 bacteria
- GlcN-Ins ([5]; 50 uM): 4.28 nmoles/10^9 bacteria
- GlcN-Ins/mycothiol ([5]; 50 uM): 0.428
- mycothiol ([5]; 50 uM): 10.0 nmoles/10^9 bacteria
- GlcN-Ins ([5]; 75 uM): 4.22 nmoles/10^9 bacteria
- GlcN-Ins/mycothiol ([5]; 75 uM): 1.21
- mycothiol ([5]; 75 uM): 3.5 nmoles/10^9 bacteria
- growth rate ([6]; 30 μM): half the normal rate
- growth ([6]; 40 μM, after 8 h): completely inhibited
- MIC ([7]; ATCC25923, Staphylococcus aureus ATCC 25923, TSB): 128 µg/mL (≈ 227 µM)
- growth inhibition, in words ([7]; Staphylococcus aureus): inhibitory
- MIC ([7]; Staphylococcus aureus RN450, TSB): 64 µg/mL (≈ 113 µM)

Compound: NNC(=O)c1ccncc1 [INH, isoniazid]
- growth of strain 49 (0% MSH) ([8]; 2 μg per ml INH and above): no effect
- growth of strain mc^2155 ([8]; 2 μg per ml INH and above): became inhibited
- growth of strain 49 (0% MSH) ([8]; 10 μg per ml INH): grows at the same rate as in the absence of INH
- growth of strain Myco504 (5-10% MSH) ([8]; 10 μg per ml INH): markedly inhibited
- growth of strain mc^2155 ([8]; 10 μg per ml INH): markedly inhibited
